Biological target: Head(wt) (NTS-DBL1α1-CIDR1γ of PfEMP1-VarO) (Plasmodium falciparum, UniProt B7T1P0)
Experiment: surface plasmon resonance (Biacore […]), immobilised trisaccharide-BSA
Format: binding
Details: labelled compound: multivalent BSA conjugate, 6 atom spacer, average 21 sugar residues per BSA; PBS, 25 °C; protein 10 nM-1 µM

Compound: C[C@@H]1O[C@@H](O[C@H]2C(O)O[C@H](CO)[C@H](O)[C@@H]2O[C@H]2O[C@H](CO)[C@H](O)[C@H](O)[C@H]2O)[C@@H](O)[C@H](O)[C@@H]1O (stereo partly shown) [blood group B trisaccharide]
- surface plasmon resonance (Biacore 2000), immobilised trisaccharide-BSA: Direct binding of the recombinant Head(wt)domain to the blood group A and B trisaccharides

From paper PMC3395597, “Structural Basis for the ABO Blood-Group Dependence of Plasmodium falciparum Rosetting” (PLoS Pathogens, 2012)
